Key:
Type in all cases: cell-based, human
HepG2 = assay: alamarBlue cytotoxicity assay, HepG2; details: 72 h of incubation
Procedure: (§1) To assess the cytotoxicity of the GLI inhibitor GANT61 (Sigma-Aldrich, St. Louis, MO, USA) in tumor and non-tumor cell lines, an alamarBlue assay (Sigma-Aldrich Chemical Co, St. Louis, MO, USA) was performed after 72 h of exposure to the inhibitor, as described by Ahmed et al., 1994 [46]. Cells were distributed on 96-well plates at a density of 7 × 10^4 cells/mL for adhered cells, and 3 × 10^5 cells/mL for cells in suspension. All tested compounds were dissolved in DMSO, added to wells containing 100 µL of cells in complete medium, and then incubated for 72 h. Eight concentrations of GANT61 (0.19 to 50 µg/mL), Doxorubicin (Laboratory IMA S.A.I.C., Buenos Aires, Argentina), and 5-Fluorouracil (5-FU, Sigma-Aldrich, St. Louis, MO, USA), both used as positive controls at concentrations ranging from 0.03 to 5 µg/mL, were added to respective wells. Cells treated with the vehicle (0.5% DMSO) used to dilute the tested compounds were used as negative controls. Before the end of the incubation period (4 h for cell lines and 24 h for PBMCs), 20 µL of alamarBlue stock solution (resazurin, Sigma-Aldrich, St. Louis, MO, USA) was added to each well. Absorbance was measured at 570 nm (reduced) and 595 nm (oxidized) wavelengths, using a Spectramax 190 plate reader (Molecular Devices; Sunnyvale, CA, USA).
(§2) Statistical analyses were performed, using GraphPad Prism v. 6.03 (GraphPad Software, Inc., San Diego, USA). Data were analyzed according to distribution along the normal Gaussian curve. IC50 values were obtained through non-linear regression, using results from three independent experiments carried out in duplicate. Differences between groups resulting from in vitro assays were evaluated by ANOVA (analysis of variance) testing, followed by the Student–Newman–Keuls test. This study considered a level of significance, corresponding to alpha (α) or “p” value, when results were less than or equal to 5%.

K562 = assay: alamarBlue cytotoxicity assay, K562; details: 72 h of incubation
Procedure: as §1, §2

HCT-116 = assay: alamarBlue cytotoxicity assay, HCT-116; details: HCT-116, alamarBlue, 72 h of incubation
Procedure: as §1, §2

CAF 2 = assay: alamarBlue cytotoxicity assay, cancer-associated fibroblasts CAF 2; details: CAF 2, alamarBlue, 72 h of incubation
Procedure: Two cancer-associated fibroblast populations (CAF1 and CAF2) were obtained as described by Sobral et al. (2011), from fragments of squamous cell carcinoma of the tongue that were removed from patients seen at the UNICAMP School of Dentistry in Piracicaba, São Paulo, Brazil.
Specimens were washed with PBS, fragmented, and placed in 25 cm^2 cell culture flasks containing 1 mL of DMEM medium supplemented with 10% FBS and an antibiotic, and then maintained in an incubator, at 37 °C, under 5% CO2. Cell growth was monitored daily, and the medium was replaced every 2–3 days. […] Type I collagen production as assessed by ELISA was also used as a marker of myofibroblast activity. Both CAF1 and CAF2 primary populations were maintained for a maximum of 12 passages, with CAF phenotype maintenance evaluated through immunocytochemical staining for the α-SMA antibody after each two passages. […]
To assess the cytotoxicity of the GLI inhibitor GANT61 (Sigma-Aldrich, St. Louis, MO, USA) in tumor and non-tumor cell lines, an alamarBlue assay (Sigma-Aldrich Chemical Co, St. Louis, MO, USA) was performed after 72 h of exposure to the inhibitor, as described by Ahmed et al., 1994 [46]. […] Absorbance was measured at 570 nm (reduced) and 595 nm (oxidized) wavelengths, using a Spectramax 190 plate reader (Molecular Devices; Sunnyvale, CA, USA). […]

Gli1 protein = assay: Western blot of HH pathway proteins in HSC3 cells, Gli1; details: 24 h
Procedure: After culturing, HSC3 cells were washed with PBS and denatured by using cell lysis buffer containing 50 mM Tris-HCl (pH 7.4), 1% Triton X-100, 150 mM NaCl, 0.5 mM EGTA, 0.5 EDTA mM, and an anti-protease cocktail (Complete Pro-inhibitor Cocktail Tablets, Roche, Basel, Switzerland). Protein extracts (50 μg) were separated by SDS-PAGE and transferred to Hybond-C Extra (GE Healthcare, Chicago, IL, USA) nitrocellulose membranes. The following antibodies were used in the Western blot assay: mouse […] against Sonic Hedgehog (1:500, Clone 5 H4, Cat. number NBP2-22126, Novus Biologicals, Centennial, CO, USA), rabbit polyclonal against Gli1 (1:500, Novus Biologicals, Cat. number NB600-600), rabbit polyclonal against Patched 1 (1:500, Novus Biologicals, Cat.number NB200-118), and rabbit polyclonal against Smoothened (1:1000, Cat. number AB72130, Abcam, Cambridge, MA, USA). The secondary antibodies were anti-mouse IgG (1:10,000, Santa Cruz Biotechnology, Santa Cruz, CA, USA) and anti-rabbit IgG (1:10,000, GE Healthcare, Chicago, IL, USA). Signal detection was performed by using an ECL + Chemiluminescence Detection System (PerkinElmer, Villebon sur-Yvette, France). The antibody actin (1:10000, Cat. Number15 G5 A11/E2, Invitrogen, Carlsbad, CA, USA) was selected as an endogenous control for analysis of HH pathway component expression in HSC3 cells. […]

HSC3 cells = assay: Morphological analysis by flow cytometry (FSC/SSC)
Procedure: To study the effects of GANT61 on HSC3 cell viability, cycle, and death patterns, 4 mL of cellular solution (containing 0.7 × 10^5 cells/mL) was placed on 6-well plates and incubated overnight, to allow adhesion. […] For cell cycle analysis, the effects of GANT61 on HSC3 cells were also evaluated after 12 h of treatment. Negative controls were treated with the vehicle (0.2% DMSO) used to dilute the GLI inhibitor, and 5-fluorouracil (5-FU, 17 μM) was used as a positive control. All experiments were carried out in duplicate and repeated no less than three times. Cell viability was determined by the trypan blue exclusion method, in which 90 μL aliquots were collected at several incubation periods, stained with 10 μL trypan blue, and counted in a Neubauer chamber, under optical microscopy, at 20× magnification (Olympus CX41 Olympus, Tokyo, Japan).
Morphological analysis of HSC3 cells was performed by flow cytometry, using FSC (size/volume) and SSC (granularity) parameters (FACSDiva). Cells were acquired (10,000 events/sample) and analyzed on a BD LSRFortessa flow cytometer, using the BD FACSDiva software version 6.2 (Becton Dickinson Biosciences, San José, CA, USA). Cellular debris was omitted from our analyses.

O=c1[nH]cc(F)c(=O)[nH]1 [5-FU, 5-fluorouracil]
IC50 (HepG2; Homo sapiens): 1.3 µM
IC50 (K562; Homo sapiens): 18.1 µM
IC50 (HCT-116; Homo sapiens): 4.07 µM
IC50 (CAF 2; Homo sapiens, Fibroblast): > 192 µM
Gli1 protein levels (Gli1 protein; HSC3, 17 µM): reduce Gli1 protein levels
cell morphology (FSC/SSC) (HSC3 cells; HSC3, 17 µM): changes consistent with apoptotic death

CN(C)c1ccccc1CN1CCCN(Cc2ccccc2N(C)C)C1c1ccncc1 [GANT61]
IC50 (HepG2): > 116 µM
IC50 (K562): > 116 µM
IC50 (HCT-116): > 116 µM
IC50 (CAF 2): 71.5 µM
Gli1 protein expression (Gli1 protein; HSC3, 18 and 36 µM): reduced levels
cell morphology (FSC/SSC) (HSC3 cells; HSC3, 18 and 36 µM, 24, 48 and 72 h): cell shrinkage
